Several values for one entry are separate records, joined by “and”; a condition that tells them apart may be missing. Equal entries are not always repeated. Toxic doses and inconclusive results are not listed. The calls were made as follows: active = survival T/C of 150% or more; inactive = T/C below 125% in these data.
System: P388 leukemia ip, CD2F1 mice, survival T/C
Test: NCI In Vivo Anticancer Drug Screen. Data for tumor model P388 Leukemia (intraperitoneal) in CD2F1 (CDF1) mice
Settings: endpoint: median survival time, higher = longer survival
Summary of the method: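 Mice carrying the transplanted tumor received test compound or vehicle. Survival was recorded in each group, and the value is the treated-group measurement divided by that of the vehicle-treated control group.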

[1] = dose: 60.0 mg/kg/injection, schedule: Q01DX005 (ip), vehicle: Klucel (hydroxypropylcellulose) (HPC)
[2] = dose: 120.0 mg/kg/injection, schedule: Q01DX005 (ip), vehicle: Klucel (hydroxypropylcellulose) (HPC)
[3] = dose: 240.0 mg/kg/injection, schedule: Q01DX005 (ip), vehicle: Klucel (hydroxypropylcellulose) (HPC)
[4] = dose: 3.13 mg/kg/injection, schedule: Q01DX009 (ip), vehicle: saline with Tween-80
[5] = dose: 6.25 mg/kg/injection, schedule: Q01DX009 (ip), vehicle: saline with Tween-80
[6] = dose: 12.5 mg/kg/injection, schedule: Q01DX009 (ip), vehicle: saline with Tween-80
[7] = dose: 50.0 mg/kg/injection, schedule: Q01DX009 (ip), vehicle: saline with Tween-80
[8] = dose: 100.0 mg/kg/injection, schedule: Q01DX009 (ip), vehicle: saline with Tween-80
[9] = dose: 200.0 mg/kg/injection, schedule: Q01DX009 (ip), vehicle: saline with Tween-80
[10] = dose: 50.0 mg/kg/injection, schedule: Q01DX005 (ip), vehicle: saline with Tween-80
[11] = dose: 100.0 mg/kg/injection, schedule: Q04DX003 (ip), vehicle: saline
[12] = dose: 200.0 mg/kg/injection, schedule: Q04DX003 (ip), vehicle: saline
[13] = dose: 100.0 mg/kg/injection, schedule: Q01DX005 (ip), vehicle: saline with Tween-80
[14] = dose: 200.0 mg/kg/injection, schedule: Q01DX005 (ip), vehicle: saline with Tween-80
[15] = dose: 50.0 mg/kg/injection, schedule: Q01DX005 (ip), vehicle: Klucel (hydroxypropylcellulose) (HPC)
[16] = dose: 100.0 mg/kg/injection, schedule: Q01DX005 (ip), vehicle: Klucel (hydroxypropylcellulose) (HPC)

Measured: T/C

BrC1=CC(Br)=C2N=C(N3CCCC3)N=C3N=C(C(Br)(Br)Br)N=C1N32
inactive: dose: 7.5 mg/kg/injection, schedule: Q01DX005 (ip), vehicle: Klucel (hydroxypropylcellulose) (HPC) 94 % of control | dose: 15.0 mg/kg/injection, schedule: Q01DX005 (ip), vehicle: Klucel (hydroxypropylcellulose) (HPC) 92 % of control | dose: 30.0 mg/kg/injection, schedule: Q01DX005 (ip), vehicle: Klucel (hydroxypropylcellulose) (HPC) 86 % of control and 90 % of control | [1] 86 % of control | [2] 88 % of control | [3] 94 % of control

COc1cccc2c1C(=O)c1c(O)c3c(c(O)c1C2=O)C[C@@](O)(C(=O)COC(C)=O)C[C@@H]3OC1CC(N)C(O)C(C)O1 (stereo partly drawn)
active: dose: 0.08 mg/kg/injection, schedule: Q01DX009 (ip), vehicle: saline sonified 200 % of control | dose: 1.5 mg/kg/injection, schedule: Q01DX009 (ip), vehicle: saline sonified 150 % of control

COC(=O)C1=C(C)NC(=O)NC1c1ccc(N(CCCl)CCCl)c(OC)c1 (stereo not drawn)
active: dose: 1.56 mg/kg/injection, schedule: Q01DX009 (ip), vehicle: saline with Tween-80 160 % of control | [4] 186 % of control
inactive: [5] 117 % of control | [6] 96 % of control

O=[N+]([O-])c1nccn1CC(O)CF (stereo not drawn)
inactive: dose: 86.4 mg/kg/injection, schedule: Q01DX005 (ip), vehicle: saline + Tween-80 + alcohol 104 % of control | dose: 144.0 mg/kg/injection, schedule: Q01DX005 (ip), vehicle: saline + Tween-80 + alcohol 89 % of control | dose: 216.0 mg/kg/injection, schedule: Q01DX001 (ip), vehicle: saline + Tween-80 + alcohol 100 % of control | dose: 216.0 mg/kg/injection, schedule: Q01DX001 (ip), vehicle: saline with Tween-80 100 % of control | dose: 240.0 mg/kg/injection, schedule: Q01DX005 (ip), vehicle: saline + Tween-80 + alcohol 103 % of control | dose: 360.0 mg/kg/injection, schedule: Q01DX001 (ip), vehicle: saline + Tween-80 + alcohol 104 % of control | dose: 360.0 mg/kg/injection, schedule: Q01DX001 (ip), vehicle: saline with Tween-80 104 % of control | dose: 600.0 mg/kg/injection, schedule: Q01DX001 (ip), vehicle: saline + Tween-80 + alcohol 101 % of control | dose: 600.0 mg/kg/injection, schedule: Q01DX001 (ip), vehicle: saline with Tween-80 101 % of control

CC(=O)c1c(C)oc(C)c1-c1ccc2c(c1)OCO2
inactive: [1] 108 % of control | [2] 103 % of control | [3] 104 % of control

[Co+2].[O-]c1cc2ccccc2cc1/C=N/c1ccccn1.[O-]c1cc2ccccc2cc1/C=N/c1ccccn1.[OH3+].[OH3+]
inactive: dose: 12.5 mg/kg/injection, schedule: Q04DX002 (ip), vehicle: saline with Tween-80 93 % of control | dose: 25.0 mg/kg/injection, schedule: Q04DX002 (ip), vehicle: saline with Tween-80 91 % of control | dose: 50.0 mg/kg/injection, schedule: Q04DX002 (ip), vehicle: saline with Tween-80 88 % of control

Cc1c(N)nc(C(CC(N)=O)NCC(N)C(N)=O)nc1C(=O)NC(C(=O)NC(C)C(O)C(C)C(=O)NC(C(=O)NCCc1nc(-c2nc(C(=O)NCCCNC(C)c3ccccc3)cs2)cs1)C(C)O)C(OC1OC(CO)C(O)C(O)C1OC1OC(CO)C(O)C(OC(N)=O)C1O)c1cnc[nH]1 (stereo not drawn)
inactive: dose: 0.25 mg/kg/injection, schedule: Q01DX009 (ip), vehicle: water 104 % of control and 95 % of control | dose: 0.5 mg/kg/injection, schedule: Q01DX009 (ip), vehicle: water 100 % of control and 111 % of control and 88 % of control | dose: 1.0 mg/kg/injection, schedule: Q01DX009 (ip), vehicle: water 103 % of control and 104 % of control and 118 % of control | dose: 2.0 mg/kg/injection, schedule: Q01DX009 (ip), vehicle: water 100 % of control and 113 % of control | dose: 4.0 mg/kg/injection, schedule: Q01DX009 (ip), vehicle: water 114 % of control and 118 % of control | dose: 8.0 mg/kg/injection, schedule: Q01DX009 (ip), vehicle: water 100 % of control

O=[N+]([O-])c1ccc2c(c1)sc1cc([N+](=O)[O-])c(Br)cc12
inactive: [7] 104 % of control | [8] 102 % of control | [9] 112 % of control | dose: 400.0 mg/kg/injection, schedule: Q01DX009 (ip), vehicle: saline with Tween-80 103 % of control

CC(C)=C(C)OS(=O)(=O)C(F)(F)F
inactive: dose: 50.0 mg/kg/injection, schedule: Q01DX009 (ip), vehicle: olive oil, sesame oil, peanut oil 102 % of control | dose: 100.0 mg/kg/injection, schedule: Q01DX009 (ip), vehicle: olive oil, sesame oil, peanut oil 114 % of control | dose: 200.0 mg/kg/injection, schedule: Q01DX009 (ip), vehicle: olive oil, sesame oil, peanut oil 96 % of control

CCN(CC)CCOC(=O)C(c1ccccc1)C(C)(O)CC (stereo not drawn)
inactive: dose: 25.0 mg/kg/injection, schedule: Q01DX009 (ip), vehicle: saline 105 % of control | dose: 50.0 mg/kg/injection, schedule: Q01DX009 (ip), vehicle: saline 100 % of control | dose: 100.0 mg/kg/injection, schedule: Q01DX009 (ip), vehicle: saline 115 % of control

O=C(OC1(c2nccc3ccccc23)CCCN(Cc2ccccc2)C1)c1ccccc1 (stereo not drawn)
inactive: [7] 106 % of control | [8] 109 % of control | [9] 104 % of control

O=C(CCCN1CCC(C(O)c2ccc(F)cc2)CC1)c1ccc(F)cc1 (stereo not drawn)
inactive: dose: 3.0 mg/kg/injection, schedule: Q01DX005 (ip), vehicle: saline with Tween-80 101 % of control | [4] 98 % of control | dose: 6.0 mg/kg/injection, schedule: Q01DX005 (ip), vehicle: saline with Tween-80 104 % of control | [5] 92 % of control | dose: 12.0 mg/kg/injection, schedule: Q01DX005 (ip), vehicle: saline with Tween-80 98 % of control | [6] 103 % of control | dose: 25.0 mg/kg/injection, schedule: Q01DX009 (ip), vehicle: saline with Tween-80 107 % of control | [10] 114 % of control | [7] 100 % of control | [8] 95 % of control

O=S(=O)(Nc1ccc(NS(=O)(=O)c2ccccc2)cc1)c1ccccc1
inactive: dose: 50.0 mg/kg/injection, schedule: Q04DX003 (ip), vehicle: saline 100 % of control | [11] 109 % of control | [12] 100 % of control

Cc1cc(C(=O)N/N=C/c2cc(Cl)cc(Cl)c2O)c2cc(Br)ccc2n1
inactive: [7] 91 % of control | [8] 91 % of control | [9] 93 % of control

Cc1cccc(NC(=O)Nc2cccc(S(N)(=O)=O)c2)c1C
inactive: [7] 104 % of control | [8] 90 % of control | [9] 90 % of control

O=C1CN(CCO)CC(=O)N2Cc3ccccc3CN12
inactive: [10] 101 % of control | [13] 111 % of control | [14] 103 % of control

O=c1c(O)c(-c2ccccc2)c1=O
inactive: dose: 25.0 mg/kg/injection, schedule: Q01DX005 (ip), vehicle: Klucel (hydroxypropylcellulose) (HPC) 98 % of control | [15] 100 % of control | [16] 98 % of control

CCCN=C1NS(=O)(=O)c2ccccc21
inactive: [10] 110 % of control | [13] 98 % of control | [14] 93 % of control

COc1ccc(C(CC(=O)O)CC(=O)N(CCCl)CCCl)cc1C (stereo not drawn)
inactive: [11] 102 % of control | [12] 100 % of control | dose: 400.0 mg/kg/injection, schedule: Q04DX003 (ip), vehicle: saline 100 % of control

CC1C2Cc3ccc(O)cc3C1(C)CCN2CCC(=O)c1ccccc1 (stereo not drawn)
inactive: [15] 92 % of control | [16] 88 % of control | dose: 200.0 mg/kg/injection, schedule: Q01DX005 (ip), vehicle: Klucel (hydroxypropylcellulose) (HPC) 88 % of control

CC(C)(C)c1cc(-n2nc3ccccc3[n+]2[O-])c(O)c(C(C)(C)C)c1
inactive: dose: 60.0 mg/kg/injection, schedule: Q01DX005 (ip), vehicle: saline with Tween-80 100 % of control | dose: 120.0 mg/kg/injection, schedule: Q01DX005 (ip), vehicle: saline with Tween-80 94 % of control | dose: 240.0 mg/kg/injection, schedule: Q01DX005 (ip), vehicle: saline with Tween-80 91 % of control
